Measurements: US8629173B2, “Solid forms comprising (+)-2-[1-(3-ethoxy-4-methoxyphenyl)-2-methylsulfonylethyl]-4-acetylaminoisoindoline-1,3-dione, compositions thereof, and uses thereof” (Celgene Corporation, priority 2002, dated 2014)
Entries after “also recorded” stand apart in the source; their conditions may differ.

Legend:
[1] = Hygroscopicity (DVS moisture sorption/desorption) studies; format: physicochemical; details: for hygroscopicity / XRPD pattern / solid form after full adsorption/desorption cycle: DVS; for hygroscopicity: 0-95% RH; for XRPD pattern / solid form after full adsorption/desorption cycle: 0-95-0% RH; for moisture sorption mass change of the starting mass: RH increased from about 0% to about 95% RH, about 25° C.
Method: Hygroscopicity studies. The hygroscopicity of various solid forms was studied using a Surface Measurement Systems DVS instrument. Typically a sample size of between about 10-50 mg was loaded into the DVS instrument sample pan and the sample was analyzed on a DVS automated sorption analyzer at about 25° C. The relative humidity was increased in increments of about 10% from about 0% to about 95% RH. The relative humidity was then decreased in a similar manner to accomplish a full adsorption/desorption cycle. The mass was recorded at periodic intervals throughout the experiment.

[2] = Interconversion studies of solid forms; format: physicochemical; details: EQ in acetone:ethanol (1:1) at 25° C., at least 2 days
Method: Interconversion Studies. Interconversion experiments were performed by making slurries of a solid form in a saturated solvent. The slurries were agitated for at least 2 days at about 25° C. The saturated solution was removed by filtration and the solid was dried in the air.

[3] = Stability studies of solid forms; format: physicochemical; details: for Stability: Analysis by XRPD (solid form after stress) / Stability: Appearance: 40° C./75% RH, 4 weeks
Method: Stability Studies. The stabilities of Forms A, B, C and D were studied by exposing the solid samples to the stress condition of 40° C./75% RH for four weeks. Moreover, the stabilities of Forms A, B, C and D in different solvents were studied by equilibration in different solvents at 40° C. for four weeks. The slurries then were filtered and dried in the air. Solid samples obtained from the stability experiments were analyzed by XRPD and DSC.

[4] = Compression studies of solid forms; details: 2000 psi for at least one minute
[5] = biological target: PDE5 from human platelets (Homo sapiens, UniProt O76074); test: PDE5 enzyme assay; format: biochemical; details: from Table 1 data
bovine PDE1 = test: PDE1 enzyme assay; format: biochemical
PDE4 (from U937 cells) = test: PDE4 (U937 cell-derived) enzyme assay; format: biochemical, human; details: 1 μM cAMP
human PDE2 = human PDE2 (Homo sapiens, UniProt O00408); test: PDE2 enzyme assay; format: biochemical; details: from Table 1 data
[6] = biological target: PDE3 from human platelets (Homo sapiens, UniProt Q14432); test: PDE3 enzyme assay; format: biochemical; details: from Table 1 data
[7] = EQ in ethanol at 40° C. for 4 weeks
[8] = EQ in heptane at 40° C. for 4 weeks
[9] = EQ in toluene at 40° C. for 4 weeks
[10] = EQ in water at 40° C. for 4 weeks

PDE3 from human platelets, sequence (Q14432 whole entry): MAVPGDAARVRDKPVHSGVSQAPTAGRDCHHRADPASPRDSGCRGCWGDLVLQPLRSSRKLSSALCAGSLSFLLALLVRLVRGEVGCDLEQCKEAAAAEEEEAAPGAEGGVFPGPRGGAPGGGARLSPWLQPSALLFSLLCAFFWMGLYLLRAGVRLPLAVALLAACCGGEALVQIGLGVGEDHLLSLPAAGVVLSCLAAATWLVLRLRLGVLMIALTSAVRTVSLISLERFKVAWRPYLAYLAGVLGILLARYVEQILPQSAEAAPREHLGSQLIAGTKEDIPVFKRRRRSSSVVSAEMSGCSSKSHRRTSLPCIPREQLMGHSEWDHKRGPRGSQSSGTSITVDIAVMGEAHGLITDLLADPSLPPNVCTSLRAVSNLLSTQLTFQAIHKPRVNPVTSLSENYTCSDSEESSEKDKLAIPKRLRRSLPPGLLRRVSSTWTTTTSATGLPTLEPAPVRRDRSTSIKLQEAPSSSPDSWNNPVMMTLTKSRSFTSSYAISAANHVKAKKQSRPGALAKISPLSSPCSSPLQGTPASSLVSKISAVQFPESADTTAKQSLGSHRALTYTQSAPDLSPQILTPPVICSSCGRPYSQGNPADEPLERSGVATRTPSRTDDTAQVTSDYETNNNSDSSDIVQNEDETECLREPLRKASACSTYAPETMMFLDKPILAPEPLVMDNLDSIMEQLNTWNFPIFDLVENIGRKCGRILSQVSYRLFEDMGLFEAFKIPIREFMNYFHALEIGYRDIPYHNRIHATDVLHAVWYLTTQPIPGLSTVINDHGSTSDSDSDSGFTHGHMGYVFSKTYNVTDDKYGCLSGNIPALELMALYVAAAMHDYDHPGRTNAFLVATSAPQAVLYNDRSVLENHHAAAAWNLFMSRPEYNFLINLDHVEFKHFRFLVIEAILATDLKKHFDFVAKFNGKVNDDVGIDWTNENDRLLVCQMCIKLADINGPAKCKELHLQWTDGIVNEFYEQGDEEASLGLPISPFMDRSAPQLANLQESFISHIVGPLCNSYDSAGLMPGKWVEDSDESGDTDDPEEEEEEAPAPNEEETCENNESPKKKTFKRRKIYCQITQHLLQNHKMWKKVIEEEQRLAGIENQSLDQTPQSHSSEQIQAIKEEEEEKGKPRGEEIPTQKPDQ
human PDE2, sequence (O00408 whole entry): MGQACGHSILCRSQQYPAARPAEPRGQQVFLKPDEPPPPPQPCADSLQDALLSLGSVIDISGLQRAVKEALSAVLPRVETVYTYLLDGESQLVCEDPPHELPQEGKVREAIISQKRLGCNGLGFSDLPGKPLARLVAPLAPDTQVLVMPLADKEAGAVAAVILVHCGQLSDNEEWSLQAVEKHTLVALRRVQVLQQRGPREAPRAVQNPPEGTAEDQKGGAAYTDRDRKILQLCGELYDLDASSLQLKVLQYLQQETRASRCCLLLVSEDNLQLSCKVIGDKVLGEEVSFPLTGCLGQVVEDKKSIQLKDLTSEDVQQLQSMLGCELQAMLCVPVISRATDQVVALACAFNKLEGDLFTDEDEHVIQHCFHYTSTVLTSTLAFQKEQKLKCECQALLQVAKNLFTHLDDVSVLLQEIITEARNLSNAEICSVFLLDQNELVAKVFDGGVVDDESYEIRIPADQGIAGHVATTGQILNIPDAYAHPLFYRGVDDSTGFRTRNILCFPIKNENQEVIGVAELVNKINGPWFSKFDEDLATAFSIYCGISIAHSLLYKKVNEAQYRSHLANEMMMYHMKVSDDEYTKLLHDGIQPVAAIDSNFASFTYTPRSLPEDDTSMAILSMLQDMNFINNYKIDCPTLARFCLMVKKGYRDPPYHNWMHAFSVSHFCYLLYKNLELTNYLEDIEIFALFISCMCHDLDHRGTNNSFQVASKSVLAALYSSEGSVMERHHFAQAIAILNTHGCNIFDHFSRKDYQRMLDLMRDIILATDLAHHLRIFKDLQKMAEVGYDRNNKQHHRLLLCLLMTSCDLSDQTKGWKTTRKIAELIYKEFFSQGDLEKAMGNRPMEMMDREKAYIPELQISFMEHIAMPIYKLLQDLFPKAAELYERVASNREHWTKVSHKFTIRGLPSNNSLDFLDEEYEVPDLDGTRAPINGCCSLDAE

Structure (SMILES)	hygroscopicity [1]	XRPD pattern / solid form after full adsorption/desorption cycle [1]	moisture sorption mass change of the starting mass [1]	Interconversion: Analysis by XRPD (solid form after equilibration) [2]	Stability: Analysis by XRPD (solid form after stress) [3]	Stability: Appearance [3]	Stability: Analysis by XRPD (solid form after equilibration) [3, 7]	Stability: Analysis by XRPD (solid form after equilibration) [3, 8]	Stability: Analysis by XRPD (solid form after equilibration) [3, 9]	Stability: Analysis by XRPD (solid form after equilibration) [3, 10]	physical stability upon compression (XRPD) [4]	PDE Specificity Ratio PDE4/PDE5 [5] [fold]	PDE1 (% inhib at 10 μM) (bovine PDE1; 10 μM) [%]	PDE Specificity Ratio PDE4/PDE1 (bovine PDE1; from Table 1 data) [fold]	IC50 (PDE4 (from U937 cells)) [nM]	PDE Specificity Ratio PDE4/PDE2 (human PDE2) [fold]	PDE Specificity Ratio PDE4/PDE3 [6] [fold]
CCOc1cc(C(CS(C)(=O)=O)N2C(=O)c3cccc(NC(C)=O)c3C2=O)ccc1OC (single isomer, unassigned; (+)) [Form G, (+)-2-[1-(3-ethoxy-4-methoxyphenyl)-2-methylsulfonylethyl]-4-acetylaminoisoindoline-1,3-dione]	substantially nonhygroscopic	substantially unchanged; also recorded: none of the forms analyzed underwent substantial solid-state transformation	about 0.4%	converts to Form B													
CCOc1cc(C(CS(C)(=O)=O)N2C(=O)c3cccc(NC(C)=O)c3C2=O)ccc1OC (single isomer, unassigned; (+)) [Form E, (+)-2-[1-(3-ethoxy-4-methoxyphenyl)-2-methylsulfonylethyl]-4-acetylaminoisoindoline-1,3-dione]	hygroscopic	substantially unchanged; also recorded: none of the forms analyzed underwent substantial solid-state transformation	about 5.1%	Form B													
CCOc1cc(C(CS(C)(=O)=O)N2C(=O)c3cccc(NC(C)=O)c3C2=O)ccc1OC (single isomer, unassigned; (+)) [Form C, (+)-2-[1-(3-ethoxy-4-methoxyphenyl)-2-methylsulfonylethyl]-4-acetylaminoisoindoline-1,3-dione]	substantially nonhygroscopic	substantially unchanged; also recorded: none of the forms analyzed underwent substantial solid-state transformation	about 0.5%	Form C	stable; also recorded: Form C	Yellow solid	stable; also recorded: Form C	stable; also recorded: Form C	stable; also recorded: Form C	stable; also recorded: Form C	substantially physically stable						
CCOc1cc(C(CS(C)(=O)=O)N2C(=O)c3cccc(NC(C)=O)c3C2=O)ccc1OC (single isomer, unassigned; (+)) [Form A, (+)-2-[1-(3-ethoxy-4-methoxyphenyl)-2-methylsulfonylethyl]-4-acetylaminoisoindoline-1,3-dione]	substantially nonhygroscopic	substantially unchanged; also recorded: none of the forms analyzed underwent substantial solid-state transformation	about 0.4%	Form B	stable; also recorded: Form A	White solid	stable; also recorded: Form F	stable; also recorded: Form A	converts to Form C	stable; also recorded: Form A	substantially physically stable						
CCOc1cc(C(CS(C)(=O)=O)N2C(=O)c3cccc(NC(C)=O)c3C2=O)ccc1OC (single isomer, unassigned; (+)) [Form F, (+)-2-[1-(3-ethoxy-4-methoxyphenyl)-2-methylsulfonylethyl]-4-acetylaminoisoindoline-1,3-dione]	substantially nonhygroscopic	substantially unchanged; also recorded: none of the forms analyzed underwent substantial solid-state transformation	about 0.2%	stable; also recorded: Form F													
CCOc1cc(C(CS(C)(=O)=O)N2C(=O)c3cccc(NC(C)=O)c3C2=O)ccc1OC (racemic) [Racemic Compound, 2-[1-(3-Ethoxy-4-methoxyphenyl)-2-methylsulfonylethyl]-4-acetylaminoisoindoline-1,3-dione]												>12000	9	>2700	81.8	>800	>670
CCOc1cc(C(CS(C)(=O)=O)N2C(=O)c3cccc(NC(C)=O)c3C2=O)ccc1OC (single isomer, unassigned; (+)) [Form D, (+)-2-[1-(3-ethoxy-4-methoxyphenyl)-2-methylsulfonylethyl]-4-acetylaminoisoindoline-1,3-dione]	slightly hygroscopic	substantially unchanged; also recorded: none of the forms analyzed underwent substantial solid-state transformation	about 1.5%	Form B	stable; also recorded: Form D	White solid	converts to Form B	converts to Form B	converts to Form C	converts to Form B	substantially physically stable						
CCOc1cc(C(CS(C)(=O)=O)N2C(=O)c3cccc(NC(C)=O)c3C2=O)ccc1OC (single isomer, unassigned; (+)) [Form B, (+)-2-[1-(3-ethoxy-4-methoxyphenyl)-2-methylsulfonylethyl]-4-acetylaminoisoindoline-1,3-dione]	substantially nonhygroscopic	substantially unchanged; also recorded: none of the forms analyzed underwent substantial solid-state transformation	about 0.6%		stable; also recorded: Form B	White solid	stable; also recorded: Form B	stable; also recorded: Form B		stable; also recorded: Form B	substantially physically stable						
